The text below walks through data of patent US8273787B2, “Activated cytotoxic compounds for attachment to targeting molecules for the treatment of mammalian disease conditions” (Onconova Therapeutics, Inc, priority 2006, dated 2012).

The subject of assay [1] is SK-BR-3. In words: growth inhibition, breast carcinoma cell line SK-BR-3. It is filed as cell-based. The settings on record: Homo sapiens; SK-BR-3, BREAST (ER−), HER2 ++++. Here is the method: (§1) Two compounds were selected from our library of cytotoxic molecules for immunoconjugation since they both have IC50 values in the low nanomolar range. Various tumor cell lines (ATCC) were treated for 96 hours in the presence of increasing concentrations of each compound and the total number of viable cells remaining was determined after 96 hours of exposure. The IC50 value was determined to be the amount of drug required to inhibit the growth of each cell line 50% as compared to vehicle treated cells.
(§2) Certain embodiments of immunoconjugates described herein are targeted to HER2 expressing breast cancer cells. Certain embodiments of immunoconjugates described herein are targeted to multiple myeloma (MM) cell lines expressing the surface antigens CD38 and or CD138. The IC50 value of ON 015100 and ON 013100 was determined for a number of breast cell lines as well as a panel of multiple myeloma cell lines expressing varying levels of each antigen and the data are shown in table (4) and table (5), respectively. […] Two cell lines, SK-BR-3 and BT474, known to express very high levels of HER2 are more than 2 fold more sensitive to ON 013100 as compared to the cell lines which express lower levels of HER2. Marx C., et al., Validated High-Throughput Screening of Drug-Like Small Molecules for Inhibitors of ErbB2 Transcription. Assay Drug Dev. […]

Assay [2] relates to MOLT-4. In words: 96 hour growth inhibition, MOLT-4. It is filed as cell-based. The note with it: Homo sapiens, MOLT-4, T-lymphoblastic:ALL. Here is the method:
as §1

Assay [3] relates to Namalwa. In words: 96 hour growth inhibition, Namalwa. The assay is classed as cell-based. The note with it: Burkitt's Lymphoma (B-cell). The method, then:
as §1

Assay [4] relates to 2008 (PARENTAL). Description: growth inhibition, 2008 (parental). The assay is classed as cell-based. The note with it: ovarian. The method, then:
as §1
(§3) Another extremely important predictive factor is the ability of these compounds to kill cell lines overexpressing multiple drug resistance (MDR) genes. A very high percentage of cancer patient relapses are due to some form of resistance to traditional chemotherapy. Of these patients, the vast majority express one or more of the MDR genes within the ABC transport gene family. Overexpression of these genes increases the efflux of compounds that are recognized by these pumping systems. […] Onconova's benzyl styryl sulfone compounds are not recognized by the MDR-1 gene and therefore provide an advantage over other highly toxic drugs including but not limited to the taxanes, doxorubicin, etoposide, and vinca-alkaloids. […] MES-SA/Dx5, uterine sarcoma, and […], ovarian, are both classical multidrug resistant cell lines that are cross resistant to the taxanes and anthracyclins. Harker, W G, and Sikic, B. I., Multidrug (Pleiotropic) Resistance In Doxorubicin-Selected Variants Of The Human Sarcoma Cell Line MES-SA, Cancer Res. 45(9):4091-6 (1985). MES-SA/Dx5 and Apr. […] Fujimori, A., et al., Mutation At The Catalytic Site Of Topoisomerase I In CEM/C2, A Human Leukemia Cell Line Resistant To Camptothecin, Cancer Res. 55(6): 1339-46 (1995). ON 01500 and ON 013100, for example, are both extremely active against these resistant cell lines.

The subject of assay [5] is SW480. In words: 96 hour growth inhibition, SW480. The assay is classed as cell-based. The note with it: Homo sapiens, SW480, COLO-RECTAL. The method, then: as §1
For assay [6], the system named is CEM/C2 (RESISTANT). Description: growth inhibition, CEM/C2 (resistant). It is filed as cell-based, Human. The note with it: for RSIST-ANCE: CEM/C2 (RESISTANT) versus CEM (PARENTAL); for IC50: Homo sapiens, CEM/C2 (RESISTANT), non classical multiple drug resistant. Here is the method: as §1, §3
For assay [7], the system named is BT20. Description: growth inhibition, breast carcinoma cell line BT20. The note with it: Homo sapiens, BT-20; BT20, BREAST (ER−), HER2 ++. It is filed as cell-based. The method, then: as §1, §2
Assay [8] deals with MES-SA/Dx5 (RESISTANT). In words: growth inhibition, MES-SA/Dx5 (resistant). It is filed as cell-based, Human. The note with it: for IC50: Homo sapiens, MES-SA/Dx5 (RESISTANT), uterine sarcoma, multidrug resistant; for RSIST-ANCE: MES-SA/Dx5 (RESISTANT) versus MES-SA (PARENTAL). The method, then: as §1, §3
Assay [9] deals with CEM. Description: 96 hour growth inhibition, CEM. The assay is classed as cell-based. The settings on record: Homo sapiens, CCRF-CEM. Here is the method: as §1, §3
Assay [10] has as its system DLD-1. In words: 96 hour growth inhibition, DLD-1. The note with it: Homo sapiens, DLD-1, COLO-RECTAL. The assay is classed as cell-based. The method, then: as §1
Assay [11] concerns NCI-H929. Description: growth inhibition, multiple myeloma cell line NCI-H929. The settings on record: Homo sapiens, CD38 + CD138 + CD20 −. The assay is classed as cell-based. The method, then: as §1
Pellat-Deceunynk, C., et al., Human Myeloma Cell Lines As A Tool For Studying The Biology Of Multiple Myeloma: A Reappraisal 18 Years After, Blood 86(10):4001-2 (1995); Gooding, R. P., et al., Phenotypic And Molecular Analysis Of Six Human Cell Lines Derived From Patients With Plasma Cell Dyscrasia, British Journal of Haematology 106:669-688 (1999).

In assay [12] the test system is Sk-OV-3. In words: 96 hour growth inhibition, Sk-OV-3. It is filed as cell-based. The note with it: Homo sapiens, Sk-OV-3, OVARIAN. The method, then:
as §1

The subject of assay [13] is RF1. Description: 96 hour growth inhibition, RF1. It is filed as cell-based. The settings on record: RF1, GASTRIC. Here is the method:
as §1

Assay [14] deals with Daudi. Description: 96 hour growth inhibition, Daudi. The assay is classed as cell-based. The settings on record: Homo sapiens, Burkitt's Lymphoma (B-cell). Here is the method: as §1
Assay [15] relates to AGS. Description: 96 hour growth inhibition, AGS. The assay is classed as cell-based. The note with it: Homo sapiens, GASTRIC. Here is the method:
as §1

For assay [16], the system named is BT474. In words: growth inhibition, breast carcinoma cell line BT474. It is filed as cell-based. The settings on record: Homo sapiens, BT-474; BT474, BREAST (ER+), HER2 ++++. The method, then:
as §1, §2

Assay [17] relates to PC-3. Description: 96 hour growth inhibition, PC-3. The assay is classed as cell-based. The settings on record: Homo sapiens, PC-3, PROSTATE (AR−). Here is the method:
as §1

Assay [18] relates to 22RV1 prostate carcinoma cells. Description: dose response assay, 22RV1 cells. The assay is classed as cell-based. The note with it: Homo sapiens. Here is the method: The penultimate precursor to compound ON 14013100 (an NHS-activated prodrug of ON 013100)—ON 13013100—lacks the activating group for conjugation to mAbs, and served as a suitable candidate to test for plasma stability. […] See, FIG. 4 which illustrates a dose response assay comparing ON 013100 to its linked version, ON 013013100. 22RV1 cells were treated with various concentrations of ON 013100 and its linked version […]. […] Current synthetic work is now focusing towards optimizing a variety of parameters (i.e. spacer length and type, mAb conjugation method, etc.) associated with the current result. Future studies will involve the synthesis and evaluation of a diverse collection of ON 01500 and ON 013100 prodrugs with the ultimate goal of improving pharmacokinetics, blood compartment stability, and intratumoral accumulation and drug release. Infra; see, Examples.

For the compound `COc1cc(OC)c(/C=C/S(=O)(=O)Cc2ccc(OC)c(N)c2)c(OC)c1` [ON 01500, (E)-2,4,6-trimethoxystyryl-4-methoxy-3-aminobenzylsulfone], the IC50 turned out to be 2 nM in assay [1]; 4 nM in assay [2]; 5 nM in assay [3]; 3 nM in assay [4]; 6 nM in assay [5]; 10 nM in assay [6]. The IC50 in assay [7] is 4 nM; in assay [8] it was 4 nM; in [9] (CEM (PARENTAL)), 10 nM; in assay [9] (CEM, […], 96 hours) it was 10 nM; in assay [10], 6 nM; in assay [11], 0.8 nM. Further, the IC50 in assay [12] was 3 nM; in [13], 2 nM; in assay [14], 3 nM; in [15], 3 nM; in [16], 2 nM; in [17], 6 nM. The RSIST-ANCE in assay [6] and in [8] was 1 throughout.
With `COc1cc(OC)c(/C=C/S(=O)(=O)Cc2ccc(OC)c(O)c2)c(OC)c1` [ON 013100, (E)-5-((2,4,6-trimethoxystyrylsulfonyl)methyl)-2-methoxyphenol], the IC50 in assay [1] was found to be 4 nM; in assay [2], 1.5 nM; in [3], 3 nM; in [4] it was 5 nM; in [5], 5 nM; in [6] it was 3 nM. Moreover, the IC50 in assay [7] was 80 nM; in [8], 5 nM; in [9] (CEM (PARENTAL)), 4 nM; in assay [9] (CEM, […], 96 hours), 4 nM; in [10], 7 nM; in assay [11], 1 nM. In addition, the IC50 was 10 nM in [18]; 4 nM in assay [12]; 3 nM in assay [13]; 3 nM in assay [14]; 5 nM in assay [15]; 3 nM in [16]. Besides, in assay [17], the IC50 was found to be 5 nM. Moreover, the results for the RSIST-ANCE in assay [6] and in assay [8] were 0.75 and 1, respectively.

Usually IC50 stands for the concentration needed to halve the response being measured.
